Data from the NIST ThermoML archive (doi:10.1021/je400968v).

Tests used:
[1] = mn = molality of the nth substance listed, in mol/kg; settings: 101 kPa, Liquid; for viscosity: Capillary tube (Ostwald / Ubbelohde) method; for mass density: Vibrating tube method
[2] = 101 kPa, Liquid; for viscosity: Capillary tube (Ostwald / Ubbelohde) method; for mass density: Vibrating tube method

CCO [ethanol] + Cc1c(N)cccc1N
[1], m2 = 0
Settings | mass density [kg/m3] | viscosity [mPa·s]
293.15 K | 789.56 | 1.179
303.15 K | 780.98 | 0.972
313.15 K | 772.22 | 0.806
323.15 K | 763.29 | 0.672
333.15 K | 754.18 | 0.564

Cc1ccc(N)cc1N [4-methyl-1,3-benzendiamine] + CCCCO
[1]
Settings | mass density, 293.15 K [kg/m3] | mass density, 303.15 K [kg/m3] | mass density, 313.15 K [kg/m3] | mass density, 323.15 K [kg/m3] | mass density, 333.15 K [kg/m3] | viscosity, 293.15 K [mPa·s] | viscosity, 303.15 K [mPa·s] | viscosity, 313.15 K [mPa·s] | viscosity, 323.15 K [mPa·s] | viscosity, 333.15 K [mPa·s]
m1 = 0.0497 | 811.16 | 803.49 | 795.7 | 787.74 | 779.59 | 2.922 | 2.237 | 1.731 | 1.357 | 1.076
m1 = 0.0997 | 812.62 | 804.93 | 797.13 | 789.15 | 781 | 2.939 | 2.246 | 1.736 | 1.362 | 1.079
m1 = 0.1501 | 814.06 | 806.37 | 798.55 | 790.56 | 782.41 | 2.954 | 2.258 | 1.746 | 1.367 | 1.083
m1 = 0.1999 | 815.48 | 807.77 | 799.94 | 791.94 | 783.78 | 2.972 | 2.269 | 1.751 | 1.372 | 1.087
m1 = 0.2491 | 816.86 | 809.14 | 801.3 | 793.29 | 785.12 | 2.994 | 2.279 | 1.759 | 1.377 | 1.091

CCCCO [butan-1-ol] + Cc1ccc(N)cc1N
[1], m2 = 0
Settings | mass density [kg/m3] | viscosity [mPa·s]
293.15 K | 809.69 | 2.908
303.15 K | 802.04 | 2.225
313.15 K | 794.27 | 1.723
323.15 K | 786.32 | 1.351
333.15 K | 778.16 | 1.071

CCO [ethanol] + Cc1ccc(N)cc1N
[1], m2 = 0
Settings | mass density [kg/m3] | viscosity [mPa·s]
293.15 K | 789.56 | 1.179
303.15 K | 780.98 | 0.972
313.15 K | 772.22 | 0.806
323.15 K | 763.29 | 0.672
333.15 K | 754.18 | 0.564

CCCO [propan-1-ol]
[2]
Settings | mass density [kg/m3] | viscosity [mPa·s]
293.15 K | 803.86 | 2.171
303.15 K | 795.54 | 1.696
313.15 K | 787.37 | 1.338
323.15 K | 779.01 | 1.067
333.15 K | 770.42 | 0.859

Cc1c(N)cccc1N [2,6-diaminotoluene] + O
[1]
Settings | mass density, 293.15 K [kg/m3] | mass density, 303.15 K [kg/m3] | mass density, 313.15 K [kg/m3] | mass density, 323.15 K [kg/m3] | mass density, 333.15 K [kg/m3] | viscosity, 293.15 K [mPa·s] | viscosity, 303.15 K [mPa·s] | viscosity, 313.15 K [mPa·s] | viscosity, 323.15 K [mPa·s] | viscosity, 333.15 K [mPa·s]
m1 = 0.0501 | 998.9 | 996.32 | 992.86 | 988.65 | 983.81 | 1.032 | 0.813 | 0.665 | 0.557 | 0.4741
m1 = 0.1002 | 999.59 | 996.97 | 993.49 | 989.24 | 984.38 | 1.053 | 0.832 | 0.677 | 0.563 | 0.479
m1 = 0.1502 | 1000.27 | 997.61 | 994.1 | 989.82 | 984.89 | 1.066 | 0.838 | 0.681 | 0.568 | 0.483
m1 = 0.2 | 1000.92 | 998.24 | 994.69 | 990.38 | 985.37 | 1.081 | 0.85 | 0.69 | 0.573 | 0.487
m1 = 0.2497 | 1001.57 | 998.86 | 995.27 | 990.93 | 985.79 | 1.09 | 0.854 | 0.694 | 0.575 | 0.488
m1 = 0.2993 | 1002.21 | 999.47 | 995.84 | 991.46 | 986.15 | 1.112 | 0.87 | 0.702 | 0.585 | 0.495

O [water]
[2]
Settings | mass density [kg/m3] | viscosity [mPa·s]
293.15 K | – | 1.002
303.15 K | – | 0.798
313.15 K | – | 0.653
323.15 K | 988.04 | 0.547
333.15 K | 983.2 | 0.467
